The values that follow come from patent US7135326B2, “UDP-glucosyltransferases” (E. I. du Pont de Nemours and Company, priority 2002, dated 2006).

The structures appear in SMILES notation.

The target of assay [1] is T1, Grape (Vitis sp.) UDP-glucosyltransferase (Grape GT), wild type, SEQ ID NO:18 (Vitis vinifera, UniProt F6H660).
T1 construct: cell-free extract and purified recombinant protein
T1 sequence (F6H660 1-478): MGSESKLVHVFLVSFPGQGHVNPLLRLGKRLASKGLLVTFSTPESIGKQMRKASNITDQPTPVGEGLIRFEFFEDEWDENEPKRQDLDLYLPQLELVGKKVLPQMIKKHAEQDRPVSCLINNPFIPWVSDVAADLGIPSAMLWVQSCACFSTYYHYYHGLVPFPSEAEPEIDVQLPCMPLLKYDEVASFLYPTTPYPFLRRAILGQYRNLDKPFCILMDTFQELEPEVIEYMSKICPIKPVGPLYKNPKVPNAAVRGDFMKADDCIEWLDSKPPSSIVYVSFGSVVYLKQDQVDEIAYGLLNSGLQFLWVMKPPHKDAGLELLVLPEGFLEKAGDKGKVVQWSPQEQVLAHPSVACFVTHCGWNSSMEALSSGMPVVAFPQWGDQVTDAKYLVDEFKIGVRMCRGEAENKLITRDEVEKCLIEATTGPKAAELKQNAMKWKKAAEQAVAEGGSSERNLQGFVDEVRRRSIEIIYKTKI
Description: Kinetic analysis of purified recombinant Grape GT (spectrophotometric assay at 304 nm). The class given is biochemical. To be noted: saturated with pHBA; 25° C., pH 7.3, 10 mM UDP-glucose. The protocol: Turnover number for the present enzyme is determined according to principles well known in the art. […] Using the protein concentration as determined in μmols in the assay, one can determine how many μmols product are formed using 1.0 μmols enzyme in a fixed time period such as a second (i.e., how many times catalytic turnover occurred).
Initial rates of product formation were measured at 25° C. over a wide range of substrate concentrations using the spectrophotometric assay (see Example 4).

Assay [2] addresses T1, Grape (Vitis sp.) UDP-glucosyltransferase (Grape GT), wild type, SEQ ID NO:18. In words: Substrate inhibition of Grape GT in cell-free extract (initial rates, Table 2). Type of assay: biochemical. To be noted: 10 mM pHBA; 25° C., pH 7.3, 10 mM UDP-glucose; data of Table 2. The protocol:
For protein production, the resulting recombinant strains were grown at 22° C. in 50 mL of LB media that contained kanamycin (50 μg/mL). At an A600 nm of ˜0.6, isopropyl-1-thio-β-D-galactopyranoside was added to a final concentration of 0.2 mM. Following a 22-h induction period at the same temperature, the cells were harvested by centrifugation and stored at −80° C. for subsequent manipulation as described below.
The frozen cell pellets were resuspended in 1.0 mL of a solution containing 100 mM Tris-HCl (pH 7.7), 5 mM MgSO4, 1 mM dithiothreitol, 0.03 mg/mL DNAse I, 0.5 mM phenylmethanesulfonyl fluoride, and passed once through a French pressure cell at 20,000 psi. […] Protein concentrations were determined by the Bradford Method using bovine serum albumin as a standard.
The second assay is based on the increase in absorbance at 368 nm that accompanies the formation of the glucose ester of sinapic acid. The experimental conditions were the same as those described above, but the test substrate was sinapic acid and product formation was calculated using an extinction coefficient of 5,570 M^−1 that was obtained with the authentic chemically synthesized compound under identical conditions. […]

In assay [3] the test system is Arabidopsis thaliana glucosyltransferase UGT84A1 (84A1, GT 3, SEQ ID NO:8). To be noted: 20° C.; Lim et al. 2002; cited from earlier work.
In assay [4] the test system is Arabidopsis thaliana UDP-glucosyltransferase 75B1. The settings on record: 20° C.; Lim et al. 2002; cited from earlier work.

Turning to `O=C(O)c1ccc(O)cc1` [pHBA, p-Hydroxybenzoic acid], the “turnover number (kcat)” value in assay [1] is roughly 10.9 s⁻¹. Further, the “substrate inhibition (in words)” value in assay [2] was “little, if any, substrate inhibition”. Besides, the “turnover number with pHBA” value in assay [3] is given as roughly 0.21 sec^−1. Moreover, the “turnover number (formation of the pHBA ester glucoside)” value in assay [4] is 0.73 sec^−1.
